{"source": "patent US20020165237A1", "about": "“Treatment of the insulin resistance syndrome” (priority 2000, published 2002)", "key": {"ob/ob mice [1]": {"tested_on": "ob/ob mice", "experiment": "Plasma glucose, cGMP and triglyceride levels in ob/ob mice, oral gavage, 5 day study", "format": "in vivo", "details": "mean ± SEM; for Changes in Plasma Glucose Concentrations: over 5 day period; for Plasma Triglyceride Level: day 5, 3 hours after dose", "protocol": "(§1) The selective PDE5 inhibitor compounds to be tested were solubilized in 10% DMSO/0.1% pluronics and dosed via oral gavage using mouse oral feeding needles (20 gauge, Popper & Sons, Inc., New Hyde Park, N.Y.). A volume of 4 ml/kg weight was administered for each dose. Compounds were tested at doses ranging from 1-50 mg/kg. Alternatively, the test selective PDE5 inhibitor compound was administered in the drinking water and found to produce similar reductions in plasma glucose and triglycerides to the reductions observed for the same compound when administered by oral gavage.\n(§2) Male ob/ob mice obtained from Jackson Laboratories (Bar Harbor, ME) were used in the studies at 6 to 10 weeks of age. Mice were housed five per cage and allowed free access to D11 mouse chow (Purina, Brentwood, Mo.) and water.\n(§3) Mice were allowed to acclimate to the Pfizer animal facilities for 1 week prior to the start of the study. On day one, retro-orbital blood samples were obtained and plasma glucose was determined as described hereinafter. […] On day one, mice were dosed with vehicle or a test selective PDE5 inhibitor compound only in the afternoon. Subsequently, mice were dosed twice a day on day 2-4 in the morning and in the afternoon. On day 5, the mice received an a.m. dose and bled 3 hours later for plasma preparation for glucose and triglyceride analysis as described below. Alternatively, test selective PDE5 inhibitor compound was administered in the drinking water commencing on the afternoon of day 1 and continuing through day 5, when mice were then bled for plasma preparation for glucose and triglyceride analysis as described below. Terminal plasma samples were collected on day 5 following the retro-orbital sinus bleed as described below. Body weight was measured on days 1 and 5 of the study, and food consumption was assessed over the 5 day period.\n(§4) On the morning of the last day of the study mice were dosed with test compound or vehicle at approximately 8:00 am. Three hours after dosing, 25 μL of blood was obtained via the retro-orbital sinus and added to 100 μL of 0.025% heparinized-saline in Denville Scientific microtubes. The tubes were spun at the highest setting in a Beckman Microfuge 12 for 2 minutes. Plasma was collected for plasma glucose and triglyceride determination. The mice were then sacrificed by decapitation and ˜1 ml of blood was collected in Becton-Dickinson Microtainer brand plasma separator tubes with lithium heparin. The tubes were spun in a Beckman Microfuge 12 at the maximum setting for five minutes. Plasma was collected in 1.5 ml Eppendorf tubes and snap frozen in liquid nitrogen. Plasma samples were stored at −80° C. until analyzed.\n(§5) Plasma glucose and triglycerides were measured using the Alcyon Clinical Chemistry Analyzer (Abbott Laboratories, Abbott Park, Ill.) using kits supplied by Abbott. Plasma cGMP was measured using the Biotrak enzyme-immunoassay system by Amersham (Piscataway, N.J.). Via a similar technique the plasma insulin can be assessed by the Mercodia ELISA Insulin kit by ALPCO (Uppsala, Sweden). All assays were conducted according to instructions provided by the manufacturers.\n(§6) Comparisons between drug treatments and appropriate vehicles were done by Student's t-test."}, "ob/ob mice [2]": {"tested_on": "ob/ob mice", "experiment": "Plasma glucose and triglyceride levels in ob/ob mice, compound administered in the drinking water, 5 day study", "format": "in vivo", "details": "for Plasma Triglyceride Level: day 5, mean ± SEM; for Changes in Plasma Glucose Concentrations: over 5 day period, mean ± SEM", "protocol": "as §1, §2, §3, §4, §5, §6"}, "[3]": {"tested_on": "non-diabetic subjects with the insulin resistance syndrome", "experiment": "Clinical Trial Data 1: 28-day clinical trial with sildenafil, serum triglyceride levels", "format": "in vivo, human", "details": "for Fall in serum triglycerides from baseline / Fall in serum triglyceride levels: 28 days; for Fall in serum triglyceride levels: non-diabetic subjects with IRS, preliminary data", "protocol": "In a 28-day clinical trial with sildenafil, serum triglyceride levels were obtained before and at the end of dosing from non-diabetic subjects. Doses included in the study were 10 mg, 25 mg and […] of sildenafil or placebo, dosed once daily. These subjects had the insulin resistance syndrome, as defined by the risk factors as defined hereinbefore. Data are presented in tables 5 and 6 below to illustrate that subjects had evidence of the insulin resistance syndrome. Coronary artery disease (CAD)/ischaemic heart disease (1HD) is one clinical end-point in subjects having the Insulin Resistance Syndrome. For this reason the presence of CAD/IHD was taken as evidence to support the existence of the Insulin Resistance Syndrome in patients with only one of the defined risk factors."}, "[4]": {"details": "10 mg once daily, baseline 255 mg/dl"}, "[5]": {"details": "25 mg once daily, baseline 213 mg/dl"}, "[6]": {"details": "50 mg once daily, baseline 191 mg/dl"}}}
{"smiles": "CCCOc1ccc(S(=O)(=O)N2CCN(CC)CC2)cc1-c1nc2c(CC)n(Cc3ccccn3)nc2c(=O)[nH]1", "note": "[PDE5 A, 3-ethyl-5-[5-(4-ethylpiperazin-1-ylsulphonyl)-2-n-propoxyphenyl]-2-(pyridin-2-yl)methyl-2,6-dihydro-7H-pyrazolo[4,3-d]pyrimidin-7-one]", "values": [{"measurement": "Changes in Plasma Glucose Concentrations", "setting": "ob/ob mice [1]; 10 mg/kg oral gavage twice a day", "value": "-115 ± 34", "unit": "mg/dL"}, {"measurement": "Plasma Triglyceride Level", "setting": "ob/ob mice [1]; 10 mg/kg oral gavage", "value": "163 ± 10", "unit": "mg/dL"}, {"measurement": "Changes in Plasma Glucose Concentrations", "setting": "ob/ob mice [1]; 50 mg/kg oral gavage twice a day", "value": "-105 ± 25", "unit": "mg/dL"}]}
{"smiles": "CCCc1nn(C)c2c(=O)[nH]c(-c3cc(C(=O)CN4CCOCC4)ccc3OCC)nc12", "note": "[PDE5 B, 5-(2-ethoxy-5-morpholinoacetylphenyl)-1-methyl-3-n-propyl-1,6-dihydro-7H-pyrazolo[4,3-d]pyrimidin-7-one]", "values": [{"measurement": "Changes in Plasma Glucose Concentrations", "setting": "ob/ob mice [1]; 25 mg/kg oral gavage twice a day", "value": "-97 ± 32", "unit": "mg/dL"}, {"measurement": "Plasma Triglyceride Level", "setting": "ob/ob mice [1]; 25 mg/kg oral gavage", "value": "143 ± 7^ mg/dl"}]}
{"smiles": "CCCc1nn(C)c2c(=O)[nH]c(-c3cc(S(=O)(=O)N4CCN(C)CC4)ccc3OCC)nc12", "note": "[PDE5 C, 5-[2-ethoxy-5-(4-methyl-1-piperazinylsulphonyl)phenyl]-1-methyl-3-n-propyl-1,6-dihydro-7H-pyrazolo[4,3-d]pyrimidin-7-one]", "values": [{"measurement": "Plasma Triglyceride Level", "setting": "ob/ob mice [2]; 9 mg/kg in the drinking water", "value": "163 ± 14", "unit": "mg/dL"}, {"measurement": "Changes in Plasma Glucose Concentrations", "setting": "ob/ob mice [2]; 9 mg/kg in the drinking water", "value": "-27 ± 34", "unit": "mg/dL"}, {"measurement": "Plasma Triglyceride Level", "setting": "ob/ob mice [2]; 22 mg/kg in the drinking water", "value": "212 ± 20", "unit": "mg/dL"}, {"measurement": "Changes in Plasma Glucose Concentrations", "setting": "ob/ob mice [2]; 22 mg/kg in the drinking water", "value": "-15 ± 27", "unit": "mg/dL"}, {"measurement": "Plasma Triglyceride Level", "setting": "ob/ob mice [2]; 45 mg/kg in the drinking water", "value": "151 ± 10", "unit": "mg/dL"}, {"measurement": "Changes in Plasma Glucose Concentrations", "setting": "ob/ob mice [2]; 45 mg/kg in the drinking water", "value": "−36 ± 22^ mg/dl"}, {"measurement": "Fall in serum triglycerides from baseline", "setting": "[3]; [4]", "value": "about 40%"}, {"measurement": "Fall in serum triglyceride levels", "setting": "[3]; [4]", "value": 100.3, "unit": "mg/dL"}, {"measurement": "Fall in serum triglycerides from baseline", "setting": "[3]; [5]", "value": "~31", "unit": "%"}, {"measurement": "Fall in serum triglyceride levels", "setting": "[3]; [5]", "value": 67.3, "unit": "mg/dL"}, {"measurement": "Fall in serum triglycerides from baseline", "setting": "[3]; [6]", "value": "~12", "unit": "%"}, {"measurement": "Fall in serum triglyceride levels", "setting": "[3]; [6]", "value": 23.9, "unit": "mg/dL"}, {"measurement": "Reduction of serum triglycerides compared to placebo", "setting": "[3]; sildenafil group vs placebo, p=0.0457", "value": "statistically significantly different compared to placebo"}, {"measurement": "HDL compared to placebo", "setting": "[3]; sildenafil group vs placebo, p=0.0539", "value": "trend"}]}
